Results: US12129275B2, “Neuroactive steroids, compositions, and uses thereof” (SAGE THERAPEUTICS, INC., priority 2011, dated 2024)
Several values for one entry are separate records, joined by “and”; a condition that tells them apart may be missing. Identical values can stand only once.

What was measured:
[1] = target: T1, NMDA receptor (GRIN1/GRIN2A subunits) (Homo sapiens, UniProt Q05586+Q12879); assay: NMDA potentiation, whole-cell patch-clamp in HEK cells; type: cell-based; conditions: currents evoked by 30 μM NMDA and 5.0 μM Glycine, holding potential −80 mV; for NMDA 1a2A (%) Potentiation 0.1 uM: compound 0.1 uM; for NMDA 1a2A (%) Potentiation 1 uM: compound 1 uM
T1 construct: expressed in transfected cells

NMDA (NR1a/NR2A) = NMDA (NR1a/NR2A) (Homo sapiens, UniProt Q05586+Q12879); conditions: reported, Madau et al. / Connick et al. 2009; cited from earlier work
NMDA receptors = conditions: background statement; cited from earlier work

T1 sequence (Q12879 23-1464, other chains not shown): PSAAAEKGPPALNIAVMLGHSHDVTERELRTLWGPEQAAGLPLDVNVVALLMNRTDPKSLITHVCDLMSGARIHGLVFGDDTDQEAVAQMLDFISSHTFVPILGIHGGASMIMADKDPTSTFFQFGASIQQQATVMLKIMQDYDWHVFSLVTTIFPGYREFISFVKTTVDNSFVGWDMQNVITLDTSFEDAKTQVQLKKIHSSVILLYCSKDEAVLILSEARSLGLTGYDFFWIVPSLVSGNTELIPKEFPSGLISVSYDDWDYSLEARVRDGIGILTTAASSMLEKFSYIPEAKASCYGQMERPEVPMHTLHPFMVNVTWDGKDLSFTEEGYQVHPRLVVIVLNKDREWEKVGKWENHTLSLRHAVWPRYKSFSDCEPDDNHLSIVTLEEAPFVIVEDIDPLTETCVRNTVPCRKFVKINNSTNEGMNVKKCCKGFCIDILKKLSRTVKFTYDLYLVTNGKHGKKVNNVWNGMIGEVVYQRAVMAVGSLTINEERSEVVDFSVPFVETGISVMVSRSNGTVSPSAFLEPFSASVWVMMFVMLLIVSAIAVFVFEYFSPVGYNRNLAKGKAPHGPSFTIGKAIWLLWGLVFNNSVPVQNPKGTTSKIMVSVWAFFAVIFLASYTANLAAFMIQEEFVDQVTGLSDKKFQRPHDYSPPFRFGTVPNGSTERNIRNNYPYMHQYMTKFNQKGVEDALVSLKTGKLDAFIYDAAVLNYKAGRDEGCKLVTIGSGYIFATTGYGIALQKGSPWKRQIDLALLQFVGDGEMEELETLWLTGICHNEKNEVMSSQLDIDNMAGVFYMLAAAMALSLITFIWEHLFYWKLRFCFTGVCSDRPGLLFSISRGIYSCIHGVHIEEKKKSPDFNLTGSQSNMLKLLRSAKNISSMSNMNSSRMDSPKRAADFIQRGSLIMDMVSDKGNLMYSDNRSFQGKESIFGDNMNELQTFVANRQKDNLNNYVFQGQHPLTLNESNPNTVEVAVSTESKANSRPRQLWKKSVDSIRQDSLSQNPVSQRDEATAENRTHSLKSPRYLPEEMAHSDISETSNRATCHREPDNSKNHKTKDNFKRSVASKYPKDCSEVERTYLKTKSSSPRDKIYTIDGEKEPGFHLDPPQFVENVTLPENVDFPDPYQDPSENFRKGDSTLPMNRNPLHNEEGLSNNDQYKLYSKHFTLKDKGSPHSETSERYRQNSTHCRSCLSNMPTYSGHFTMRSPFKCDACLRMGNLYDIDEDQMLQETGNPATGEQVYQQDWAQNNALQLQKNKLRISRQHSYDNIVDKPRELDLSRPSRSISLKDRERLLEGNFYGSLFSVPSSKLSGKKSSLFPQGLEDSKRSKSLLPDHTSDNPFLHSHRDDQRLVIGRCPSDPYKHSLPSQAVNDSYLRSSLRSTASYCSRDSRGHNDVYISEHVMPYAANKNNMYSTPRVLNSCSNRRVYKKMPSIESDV
NMDA (NR1a/NR2A), sequence (Q12879 23-1464, other chains not shown): as above

Compound | NMDA 1a2A (%) Potentiation 0.1 uM [1] | NMDA 1a2A (%) Potentiation 1 uM [1] | modulation of NMDA (NR1a/NR2A) (NMDA (NR1a/NR2A)) | selectivity NMDA over GABAA (NMDA (NR1a/NR2A)) | modulation of NMDA receptors (NMDA receptors)
CC(CCC(C)(C)O)[C@H]1CC[C@H]2[C@@H]3CC=C4C[C@@H](O)CC[C@]4(C)[C@H]3CC[C@]12C (stereo partly shown) | 55% | 197% |  |  | 
C[C@H](CCC(C)(C)O)[C@H]1CC[C@H]2[C@@H]3CC=C4C[C@@](C)(O)CC[C@]4(C)[C@H]3CC[C@]12C | 128% | 348% |  |  | 
C[C@H](CCC(C)(C)O)[C@H]1CC[C@H]2[C@@H]3CC=C4C[C@@H](O)CC[C@@H]4[C@H]3CC[C@]12C | 28% | 66% |  |  | 
C[C@H](CCC1(O)CC1)[C@H]1CC[C@H]2[C@@H]3CC=C4C[C@@H](O)CC[C@]4(C)[C@H]3CC[C@]12C | 74% | 171% |  |  | 
C[C@H](CC(F)(F)CO)[C@H]1CC[C@H]2[C@@H]3CC=C4C[C@@H](O)CC[C@]4(C)[C@H]3CC[C@]12C | 31% | 95% |  |  | 
C[C@H](CCCO)[C@H]1CC[C@H]2[C@@H]3CC=C4C[C@@H](O)CC[C@]4(C)[C@H]3CC[C@]12C | 39% | 127% |  |  | 
C[C@H](CCC(C)(C)O)[C@H]1CC[C@H]2[C@@H]3CC[C@H]4C[C@@H](O)CC[C@@H]4[C@H]3CC[C@]12C | 19% | 44% |  |  | 
C[C@@H]([C@H]1CC[C@H]2[C@@H]3CC=C4C[C@@H](O)CC[C@]4(C)[C@H]3CC[C@]12C)C(C)(C)O | 4% | 24% |  |  | 
CC(O)CC[C@@H](C)[C@H]1CC[C@H]2[C@@H]3CC=C4C[C@@H](O)CC[C@]4(C)[C@H]3CC[C@]12C (stereo partly shown) | 42% | 98% |  |  | 
C[C@H](CCC(C)(C)O)[C@H]1CC[C@H]2[C@@H]3CC=C4C[C@](C)(O)CC[C@]4(C)[C@H]3CC[C@]12C | 13% | 60% |  |  | 
C[C@H](CCC(C)(C)N)[C@H]1CC[C@H]2[C@@H]3CC=C4C[C@@H](O)CC[C@]4(C)[C@H]3CC[C@]12C | −8% | −19% |  |  | 
CC[C@]1(O)CC[C@@]2(C)C(=CC[C@H]3[C@@H]4CC[C@H]([C@H](C)CCC(C)(C)O)[C@@]4(C)CC[C@@H]32)C1 | 181% | 286% |  |  | 
CC[C@@]1(O)CC[C@@]2(C)C(=CC[C@H]3[C@@H]4CC[C@H]([C@H](C)CCC(C)(C)O)[C@@]4(C)CC[C@@H]32)C1 | 23% | 139% |  |  | 
CNC(C)(C)CC[C@@H](C)[C@H]1CC[C@H]2[C@@H]3CC=C4C[C@@H](O)CC[C@]4(C)[C@H]3CC[C@]12C | 25% | 19% |  |  | 
C[C@H](CCC(C)(C)O)[C@H]1CC[C@H]2[C@@H]3CC[C@H]4C[C@@](C)(O)CC[C@@H]4[C@H]3CC[C@]12C | 25% | 114% |  |  | 
C[C@H](CCC(C)(C)O)[C@H]1CC[C@H]2[C@@H]3CC[C@H]4C[C@](C)(O)CC[C@@H]4[C@H]3CC[C@]12C | 21% | 52% |  |  | 

Compound | NMDA 1a2A (%) Potentiation 0.1 uM [1] | NMDA 1a2A (%) Potentiation 1 uM [1] | modulation of NMDA (NR1a/NR2A) (NMDA (NR1a/NR2A)) | selectivity NMDA over GABAA (NMDA (NR1a/NR2A)) | modulation of NMDA receptors (NMDA receptors)
C[C@H](CCC(C)(C)O)[C@H]1CC[C@H]2[C@@H]3CC[C@H]4C[C@](O)(C(F)(F)F)CC[C@@H]4[C@H]3CC[C@]12C | 14% | 85% |  |  | 
C[C@H](CCC(C)(C)O)[C@H]1CC[C@H]2[C@@H]3CC[C@H]4C[C@@H](O)CC[C@]4(C)[C@H]3CC[C@]12C | 18% | 85% |  |  | 
C[C@H](CCC(C)(C)O)[C@H]1CC[C@H]2[C@@H]3CC[C@H]4C[C@](O)(C(F)(F)F)CC[C@]4(C)[C@H]3CC[C@]12C | 59% | 172% |  |  | 
C[C@H](CCC(C)(C)O)[C@H]1CC[C@H]2[C@@H]3CC[C@H]4C[C@](C)(O)CC[C@]4(C)[C@H]3CC[C@]12C | 19% | 30% |  |  | 
C[C@H](CCC(C)(C)O)[C@H]1CC[C@H]2[C@@H]3CC[C@H]4C[C@@](C)(O)CC[C@]4(C)[C@H]3CC[C@]12C | 87% and 70% | 278% and 238% |  |  | 
C[C@H](CC(C)(C)O)[C@H]1CC[C@H]2[C@@H]3CC=C4C[C@@H](O)CC[C@]4(C)[C@H]3CC[C@]12C | −5% | 27% |  |  | 
CC(C)[C@H](O)CC[C@@H](C)[C@H]1CC[C@H]2[C@@H]3CC=C4C[C@@H](O)CC[C@]4(C)[C@H]3CC[C@]12C | 82% | 137% |  |  | 
C[C@H](CCC(C)(C)O)[C@H]1CC[C@H]2[C@@H]3CC[C@@H]4C[C@@](O)(C(F)(F)F)CC[C@]4(C)[C@H]3CC[C@]12C | 9% | 18% |  |  | 
COC[C@@]1(O)CC[C@@]2(C)[C@@H](CC[C@@H]3[C@@H]2CC[C@]2(C)[C@@H]([C@H](C)CCC(C)(C)O)CC[C@@H]32)C1 | 8% | 25% |  |  | 
COC[C@]1(O)CC[C@@]2(C)[C@@H](CC[C@@H]3[C@@H]2CC[C@]2(C)[C@@H]([C@H](C)CCC(C)(C)O)CC[C@@H]32)C1 | 14% | 110% |  |  | 
CC(C)(O)CCC[C@H]1CCC2C3CC[C@H]4C[C@@](C)(O)CC[C@]4(C)C3CC[C@@]21C (stereo partly shown) | 17% | 105% |  |  | 
CC(C)(O)CCO[C@H]1CCC2C3CC[C@H]4C[C@@](C)(O)CC[C@]4(C)C3CC[C@@]21C (stereo partly shown) | 6% | 27% |  |  | 
CC(C)(O)COC[C@H]1CCC2C3CC=C4C[C@@](C)(O)CC[C@]4(C)C3CC[C@@]21C (stereo partly shown) | −5% | −14% |  |  | 
C[C@H](CCC(C)(C)O)[C@H]1CC[C@H]2[C@@H]3CC=C4C[C@@H](O)CC[C@]4(C)[C@H]3CC[C@]12C [Org-1] |  |  | positive modulator | selectively modulate NMDA over GABAA | 
pregnenolone sulfate [PS] |  |  |  |  | positively modulated
